Assays:
recombinant cathepsin L = recombinant cathepsin L (Homo sapiens, UniProt P07711); assay: Enzyme kinetics / turnover of quenched substrates with recombinant cathepsin L; format: biochemical; conditions: for increase in catalytic efficiency, spacer n=6 relative to n=2 analog: Cat L, 6CQ vs 2CQ, 6QC vs 2QC; for Km / kcat: recombinant cathepsin L, 5 nM enzyme; for Km: 50 mM citrate buffer pH 5.5, 37° C., average of three replicates ± standard error; for kcat: citrate buffer pH 5.5, 37° C.
Description: (§1) The activity and selectivity of all 6 substrates were determined by monitoring the turnover curves of each internally quenched probe in the presence of various recombinant cysteine proteases, specifically cathepsins L, S, K, B, and V. Equal concentration (5 nM) of each enzyme was incubated with the different probes in 50 mM citrate buffer (pH=5.5, 5 mM DTT, 0.1% triton X, 0.5% CHAPS) at 37° C. The exact concentration of the various cathepsins used were confirmed by active site titration (Boucher et al. (2014) Methods Mol. Biol. 1133:3-39) using the covalent cysteine protease inhibitor ZFK-PMK and the commercial substrates Z-VVR-AMC for cathepsins S, L, B, and V, or Z-KR-AMC for cathepsin K. The rate of increase in Cy5 fluorescence (which is indicative of probe cleavage by cathepsins) was measured for each of the probes.

recombinant cathepsin V = recombinant cathepsin V (Homo sapiens, UniProt O60911); assay: Enzyme kinetics / turnover of quenched substrates with recombinant cathepsin V; format: biochemical; conditions: for increase in efficiency, spacer n=6 relative to n=2 analog: Cat V, nCQ and nQC series respectively; for Km / kcat: recombinant cathepsin V, 5 nM enzyme; for Km: 50 mM citrate buffer pH 5.5, 37° C., average of three replicates ± standard error; for kcat: citrate buffer pH 5.5, 37° C.
Description: as §1

[1] = tested on: 4T1 tumors (tumor associated cysteine cathepsins); assay: Non-invasive imaging with NIR probes in 4T1 breast cancer model, IVIS-spectrum; format: in vivo, mouse; conditions: 24 hour time course
Text: The optimized substrate probes described above have therefore been tested in a clinically relevant model systems of FGS. […] In these compounds, the Cy5 chromophore was strategically substituted with a similar molecular weight near infrared (NIR) DyLight 780-B1 fluorophore. The compound with a linker having n=6 was chosen based on the optimal turnover numbers by cathepsins in vitro. The QSY21-sulfo quencher was also substituted with IRDye QC-1, which is a dark NIR quencher (FIG. 6A). In addition to being detectable on the camera system of the da Vinci robot, the emission wavelength of the NIR dye (absorption/emission maxima of 783/799 nm) falls within a window with low overall background and will therefore enhance tissue penetration and improve signal to background ratio during imaging. Richards-Kortum and Sevick-Muraca (1996) Annu. Rev. Phys. Chem. 47:555-606. The NIR probes were first analyzed as contrast agents in the 4T1 breast cancer model described above, using the IVIS-spectrum imaging system. Following systemic administration of the contrast agents, mice were imaged non-invasively every hour for 4 hours, and then at 6, 8, 12 and 24 hours post injection of the substrate. […] The intensity of the fluorescence signal in the tumors increased rapidly in mice injected with both types of probes, and it eventually peaked between 4 to 6 hours. […]

[2] = tested on: 4T1 tumors (tumor associated cysteine cathepsins); assay: Non-invasive optical imaging with Cy5 substrates, syngeneic orthotopic 4T1 mouse model of breast cancer; format: in vivo; conditions: for Cy5 fluorescence in frozen tumor sections: 24-hour endpoint, histology; for overall absolute fluorescence intensity in the tumors compared to non-lysosomotropic substrates 2CQ and 6CQ: intravenous, non-invasive imaging
Description: In this model 4T1 cells are inoculated into the left number 1 and 10 mammary fat pad of mice to generate tumors. In order to determine the impact of the LLE, imaging signals of lysosomotropic probes 2QC (compound 5) and 6QC (compound 7) were directly compared to those of the non-lysosomotropic analogues 2CQ (compound 2) and 6CQ (compound 4). Substrates were administered to tumor-bearing mice intravenously, and mice were imaged at various time points following the administration. […] The intensity of the fluorescent signal reached a maximum at 4 hour after administration, followed by a decrease in the signal intensity (FIG. 4B). […] Furthermore, the intensity of the signal remained constant over a period of 24 hours in the tumors of mice administered with the LLE substrates, whereas the signals from the non-LLE substrates were almost completely cleared after 24 hours (FIGS. 4A and 4B). A similar trend was observed by ex vivo imaging of tumors excised from mice that had been euthanized after 4 hours and after 24 hours (FIG. 4C).
In order to determine which populations of cells are responsible for activating the quenched substrate probes in vivo, immunofluorescence staining on frozen sliced sections of tumors isolated from mice injected with each substrate was performed using a macrophage-selective marker CD68. The Cy5 signal of the substrate co-localized to only CD68-positive cells (macrophages), with no signals observed in the 4T1 tumor cell (FIG. 5A). Moreover, Cy5 fluorescence was only observed in tissues from mice that received nQC substrates and not in tissues from mice treated with nCQ substrates (FIG. 5B).

recombinant cathepsin V, sequence (O60911 114-334): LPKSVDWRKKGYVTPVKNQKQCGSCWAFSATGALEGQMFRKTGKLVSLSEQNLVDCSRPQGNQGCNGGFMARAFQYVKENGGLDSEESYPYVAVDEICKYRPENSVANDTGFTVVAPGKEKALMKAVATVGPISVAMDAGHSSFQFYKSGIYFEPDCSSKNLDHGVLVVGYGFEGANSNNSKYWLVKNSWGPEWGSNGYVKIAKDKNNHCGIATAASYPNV
recombinant cathepsin L, sequence (P07711 114-333, species assumed): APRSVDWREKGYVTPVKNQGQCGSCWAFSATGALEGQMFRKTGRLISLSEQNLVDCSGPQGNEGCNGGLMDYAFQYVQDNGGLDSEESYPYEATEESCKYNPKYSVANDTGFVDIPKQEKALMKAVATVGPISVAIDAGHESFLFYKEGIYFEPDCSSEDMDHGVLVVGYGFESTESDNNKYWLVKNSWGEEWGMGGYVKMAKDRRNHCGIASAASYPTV

| SMILES | increase in catalytic efficiency, spacer n=6 relative to n=2 analog (recombinant cathepsin L) [fold] | Km (recombinant cathepsin L) [µM] | kcat (recombinant cathepsin L) [s⁻¹] | increase in efficiency, spacer n=6 relative to n=2 analog (recombinant cathepsin V) [fold] | Km (recombinant cathepsin V) [µM] | kcat (recombinant cathepsin V) [s⁻¹] | clearance rate and signal in tumors relative to the non-LLE substrate [1] | Cy5 fluorescence in frozen tumor sections [2] | overall absolute fluorescence intensity in the tumors compared to non-lysosomotropic substrates 2CQ and 6CQ [2] |
| --- | --- | --- | --- | --- | --- | --- | --- | --- | --- |
| CC[N+]1=C(C=CC=CC=C2N(CCCCCC(=O)NCCCC[C@H](NC(=O)[C@H](Cc3ccccc3)NC(=O)OCc3ccccc3)C(=O)NCCCCCCNC(=O)C3CCN(S(=O)(=O)c4ccccc4-c4c5ccc(=[N+]6CCc7cc(S(=O)(=O)O)ccc76)cc-5oc5cc(N6CCc7cc(S(=O)(=O)O)ccc76)ccc45)CC3)c3ccc(S(=O)(=O)O)cc3C2(C)C)C(C)(C)c2cc(S(=O)(=O)O)ccc21 [6CQ] | 4 | 5.4 ± 0.5 | 0.487 | 8 | 6.8 ± 0.4 | 0.164 |  |  |  |
| CCN(CC)c1ccc2c(C(C)(C)C)cc(C=CC=CC=C3N(CCCCCC(=O)NCCCCCCNC(=O)[C@H](CCCCNC(=O)CCCCCN4C(=CC=C5CCCC(C=CC6=[N+](CCCS(=O)(=O)O)c7ccc(N(CCCS(=O)(=O)O)CCCS(=O)(=O)O)cc7C6(C)C)=C5Cl)C(C)(C)c5c4ccc4cc(S(=O)(=O)O)ccc54)NC(=O)[C@H](Cc4ccccc4)NC(=O)OCc4ccccc4)c4ccc(S(=O)(=O)O)cc4C3(C)C)[o+]c2c1 [6QCNIR] |  |  |  |  |  |  | slower clearance rate and brighter signal |  |  |
| CC[N+]1=C(C=CC=CC=C2N(CCCCCC(=O)NCCCC[C@H](NC(=O)[C@H](Cc3ccccc3)NC(=O)OCc3ccccc3)C(=O)NCCNC(=O)C3CCN(S(=O)(=O)c4ccccc4-c4c5ccc(=[N+]6CCc7cc(S(=O)(=O)O)ccc76)cc-5oc5cc(N6CCc7cc(S(=O)(=O)O)ccc76)ccc45)CC3)c3ccc(S(=O)(=O)O)cc3C2(C)C)C(C)(C)c2cc(S(=O)(=O)O)ccc21 [2CQ] |  | 6.4 ± 0.8 | 0.141 |  | 5 ± 0.4 | 0.014 |  |  |  |
| CC[N+]1=C(C=CC=CC=C2N(CCCCCC(=O)NCCNC(=O)[C@H](CCCCNC(=O)C3CCN(S(=O)(=O)c4ccccc4-c4c5ccc(=[N+]6CCc7cc(S(=O)(=O)O)ccc76)cc-5oc5cc(N6CCc7cc(S(=O)(=O)O)ccc76)ccc45)CC3)NC(=O)[C@H](Cc3ccccc3)NC(=O)OCc3ccccc3)c3ccc(S(=O)(=O)O)cc3C2(C)C)C(C)(C)c2cc(S(=O)(=O)O)ccc21 [2QC] |  | 6.5 ± 1.5 | 0.095 |  | 0.9 ± 0.1 | 0.008 |  | observed | higher and brighter |

Second part, led by results:

| increase in catalytic efficiency, spacer n=6 relative to n=2 analog (recombinant cathepsin L) [fold] | Km (recombinant cathepsin L) [µM] | kcat (recombinant cathepsin L) [s⁻¹] | increase in efficiency, spacer n=6 relative to n=2 analog (recombinant cathepsin V) [fold] | Km (recombinant cathepsin V) [µM] | kcat (recombinant cathepsin V) [s⁻¹] | SMILES | clearance rate and signal in tumors relative to the non-LLE substrate [1] | Cy5 fluorescence in frozen tumor sections [2] | overall absolute fluorescence intensity in the tumors compared to non-lysosomotropic substrates 2CQ and 6CQ [2] |
| --- | --- | --- | --- | --- | --- | --- | --- | --- | --- |
|  | 4.6 ± 0.7 | 0.283 |  | 3.4 ± 0.3 | 0.073 | CC[N+]1=C(C=CC=CC=C2N(CCCCCC(=O)NCCCC[C@H](NC(=O)[C@H](Cc3ccccc3)NC(=O)OCc3ccccc3)C(=O)NCCCCNC(=O)C3CCN(S(=O)(=O)c4ccccc4-c4c5ccc(=[N+]6CCc7cc(S(=O)(=O)O)ccc76)cc-5oc5cc(N6CCc7cc(S(=O)(=O)O)ccc76)ccc45)CC3)c3ccc(S(=O)(=O)O)cc3C2(C)C)C(C)(C)c2cc(S(=O)(=O)O)ccc21 [4CQ] |  |  |  |
|  | 8.6 ± 1.3 | 0.396 |  | 4.8 ± 0.2 | 0.188 | CC[N+]1=C(C=CC=CC=C2N(CCCCCC(=O)NCCCCNC(=O)[C@H](CCCCNC(=O)C3CCN(S(=O)(=O)c4ccccc4-c4c5ccc(=[N+]6CCc7cc(S(=O)(=O)O)ccc76)cc-5oc5cc(N6CCc7cc(S(=O)(=O)O)ccc76)ccc45)CC3)NC(=O)[C@H](Cc3ccccc3)NC(=O)OCc3ccccc3)c3ccc(S(=O)(=O)O)cc3C2(C)C)C(C)(C)c2cc(S(=O)(=O)O)ccc21 [4QC] |  |  |  |
| 6 | 5.3 ± 0.8 | 0.458 | 4 | 4.4 ± 0.2 | 0.150 | CC[N+]1=C(C=CC=CC=C2N(CCCCCC(=O)NCCCCCCNC(=O)[C@H](CCCCNC(=O)C3CCN(S(=O)(=O)c4ccccc4-c4c5ccc(=[N+]6CCc7cc(S(=O)(=O)O)ccc76)cc-5oc5cc(N6CCc7cc(S(=O)(=O)O)ccc76)ccc45)CC3)NC(=O)[C@H](Cc3ccccc3)NC(=O)OCc3ccccc3)c3ccc(S(=O)(=O)O)cc3C2(C)C)C(C)(C)c2cc(S(=O)(=O)O)ccc21 [6QC] |  | observed | higher and brighter |

— patent publication US12459972B2, “Protease-activated contrast agents for in vivo imaging” (THE BOARD OF TRUSTEES OF THE LELAND STANFORD JUNIOR …, priority 2015, dated 2025)
